From patent US9833497B2, “Human originated EGF domain proteins and use of the same” (CHENGDU SOURCEBIO LIMITED-LIABILITY COMPANY, priority 2013, dated 2017)

How the values were obtained:
Type in all cases: cell-based
[1] = tested on: Proteus vulgaris; experiment: MIC against Gram-negative bacteria: Proteus vulgaris; details: for MIC P. vulgaris / MIC (μg/mL) P. vulgaris: 5×10^5 CFU/mL
Outline: (§1)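 MIC = lowest concentration of recombinant protein showing no growth. Test proteins: purified human-derived EGF domain proteins, two-fold dilution series, three wells per concentration; inoculum 5×10^5 CFU/mL in LB; incubation 37° C with shaking at 175 rpm.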

[2] = tested on: Klebsiella pneumonia; experiment: MIC against Gram-negative bacteria: Klebsiella pneumonia; details: for MIC K. pneumonia / MIC (μg/mL) K. pneumonia: 5×10^5 CFU/mL
Outline: as §1

[3] = tested on: Citrobacter diversus; experiment: MIC against Gram-negative bacteria: Citrobacter diversus; details: for MIC C. diversus / MIC (μg/mL) C. diversus: 5×10^5 CFU/mL
Outline: as §1

[4] = tested on: E. coli BL21; experiment: MIC against Gram-negative bacteria: E. coli BL21; details: for MIC E. coli BL21 / MIC (μg/mL) E. coli BL21: 5×10^5 CFU/mL
Outline: as §1

[5] = tested on: Moraxella catarrhalis; experiment: MIC against Gram-negative bacteria: Moraxella catarrhalis; details: for MIC M. catarrhalis / MIC (μg/mL) M. catarrhalis: 5×10^5 CFU/mL
Outline: as §1

[6] = tested on: Enterobacter cloacae; experiment: MIC against Gram-negative bacteria: Enterobacter cloacae; details: for MIC E. cloacae / MIC (μg/mL) E. cloacae: 5×10^5 CFU/mL
Outline: as §1

[7] = tested on: Proteus mirabilis; experiment: MIC against Gram-negative bacteria: Proteus mirabilis; details: for MIC P. mirabilis / MIC (μg/mL) P. mirabilis: 5×10^5 CFU/mL
Outline: as §1

[8] = tested on: Aeromonas hydrophila; experiment: MIC against Gram-negative bacteria: Aeromonas hydrophila; details: for MIC A. hydrophila / MIC (μg/mL) A. hydrophila: 5×10^5 CFU/mL
Outline: as §1

[9] = tested on: Serratia marcescens; experiment: MIC against Gram-negative bacteria: Serratia marcescens; details: for MIC S. marcescens / MIC (μg/mL) S. marcescens: 5×10^5 CFU/mL
Outline: as §1

[10] = tested on: E. coli DH5α; experiment: Antibacterial activity: MIC and growth curve against E. coli DH5α in 96-well plate; details: minimal inhibitory concentration against E. coli DH5α; 96-well plate, 5×10^5 CFU/mL, 37° C., judged after 8 h
Outline: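 Log-phase DH5α (OD600 about 0.5, 37° C, 185 rpm in LB) was pelleted, resuspended in fresh LB and seeded at 5×10^5 CFU/mL with recombinant protein at 50, 25 and 12.5 μg/mL (two-fold series), in triplicate. Plates were shaken at 175 rpm, 37° C, and OD600 was read every 30 min. MIC was the lowest concentration with no growth.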

[11] = tested on: Pseudomonas aeruginosa; experiment: MIC against Gram-negative bacteria: Pseudomonas aeruginosa; details: for MIC P. aeruginosa / MIC (μg/mL) P. aeruginosa: 5×10^5 CFU/mL
Outline: as §1

[12] = P. vulgaris, 10 h cultivation at 37° C.
[13] = K. pneumonia, 10 h cultivation at 37° C.
[14] = C. diversus, 10 h cultivation at 37° C.
[15] = E. coli BL21, 10 h cultivation at 37° C.
[16] = M. catarrhalis, 10 h cultivation at 37° C.
[17] = E. cloacae, 10 h cultivation at 37° C.
[18] = P. mirabilis, 10 h cultivation at 37° C.
[19] = A. hydrophila, 10 h cultivation at 37° C.
[20] = S. marcescens, 10 h cultivation at 37° C.
[21] = P. aeruginosa, 10 h cultivation at 37° C.
[22] = 10 h cultivation at 37° C., two-fold serial dilution

Substance | MIC P. vulgaris ([1]; 96-well plate, 37° C., 10 h) [µg/mL] | MIC K. pneumonia ([2]; 96-well plate, 37° C., 10 h) [µg/mL] | MIC C. diversus ([3]; 96-well plate, 37° C., 10 h) [µg/mL] | MIC E. coli BL21 ([4]; 96-well plate, 37° C., 10 h) [µg/mL] | MIC M. catarrhalis ([5]; 96-well plate, 37° C., 10 h) [µg/mL] | MIC E. cloacae ([6]; 96-well plate, 37° C., 10 h) [µg/mL] | MIC P. mirabilis ([7]; 96-well plate, 37° C., 10 h) [µg/mL] | MIC A. hydrophila ([8]; 96-well plate, 37° C., 10 h) [µg/mL] | MIC S. marcescens ([9]; 96-well plate, 37° C., 10 h) [µg/mL] | MIC [10] [µg/mL] | MIC P. aeruginosa ([11]; 96-well plate, 37° C., 10 h) [µg/mL] | MIC (μg/mL) P. vulgaris [1, 12] [µg/mL] | MIC (μg/mL) K. pneumonia [2, 13] [µg/mL] | MIC (μg/mL) C. diversus [3, 14] [µg/mL] | MIC (μg/mL) E. coli BL21 [4, 15] [µg/mL] | MIC (μg/mL) M. catarrhalis [5, 16] [µg/mL] | MIC (μg/mL) E. cloacae [6, 17] [µg/mL] | MIC (μg/mL) P. mirabilis [7, 18] [µg/mL] | MIC (μg/mL) A. hydrophila [8, 19] [µg/mL] | MIC (μg/mL) S. marcescens [9, 20] [µg/mL] | also measured
PRT715 (DIDECSSGFPCSQQCINTYGTYKCLCTDGYEIQPDNPNGCK; listed as Homo sapiens) | 50 | 12.5 | 50 | 50 | 12.5 | 50 | 25 | 12.5 | 12.5 | 50 | 25 | – | – | – | – | – | – | – | – | – | –
PRT692 (DVDECATGGRCQHGECANTRGGYTCVCPDGFLLDSSRSSCI; listed as Homo sapiens) | 25 | 50 | 50 | 25 | 25 | 25 | 12.5 | 12.5 | 50 | 50 | 12.5 | – | – | – | – | – | – | – | – | – | –
PRT904 (NTPDCTESSCFNGGTCVDGINSFTCLCPPGFTGSYCQ; listed as Homo sapiens) | – | – | – | – | – | – | – | – | – | 50 | – | – | – | – | – | – | – | – | – | – | MIC [1, 12]: 25 µg/mL; MIC [2, 13]: 12.5 µg/mL; MIC [3, 14]: 12.5 µg/mL; MIC [4, 15]: 12.5 µg/mL; MIC [5, 16]: 25 µg/mL; MIC [6, 17]: 12.5 µg/mL; MIC [7, 18]: 12.5 µg/mL; MIC [8, 19]: 25 µg/mL; MIC [9, 20]: 25 µg/mL; MIC [11, 21]: 25 µg/mL
PRT217 (DIDECTIPPYCHQRCVNTPGSFYCQCSPGFQLAANNYTCV; listed as Homo sapiens) | – | – | – | – | – | – | – | – | – | 12.5 | – | 12.5 | 25 | 12.5 | 25 | 12.5 | 12.5 | 12.5 | 25 | 50 | MIC (μg/mL) P. aeruginosa [11, 21]: 12.5 µg/mL
PRT854 (TCSMANCQYGCDVVKGQIRCQCPSPGLQLAPDGRTCV; listed as Homo sapiens) | – | – | – | – | – | – | – | – | – | 12.5 | – | 50 | 12.5 | 12.5 | 12.5 | 50 | 12.5 | 12.5 | 12.5 | 12.5 | MIC (μg/mL) P. aeruginosa [11, 21]: 100 µg/mL
PRT1179 (DIDECASNPCLNGGHCQNEINRFQCLCPTGFSGNLCQ; listed as Homo sapiens) | – | – | – | – | – | – | – | – | – | 12.5 | – | – | – | – | – | – | – | – | – | – | MIC P. vulgaris [1, 22]: 25 µg/mL; MIC K. pneumonia [2, 22]: 12.5 µg/mL; MIC C. diversus [3, 22]: 12.5 µg/mL; MIC E. coli BL21 [4, 22]: 50 µg/mL; MIC M. catarrhalis [5, 22]: 25 µg/mL; MIC E. cloacae [6, 22]: 50 µg/mL; MIC P. mirabilis [7, 22]: 50 µg/mL; MIC A. hydrophila [8, 22]: 25 µg/mL; MIC S. marcescens [9, 22]: 12.5 µg/mL; MIC P. aeruginosa [11, 22]: 25 µg/mL
